In EP4434982A1, “(S)-2-(2-METHYLAZETIDIN-1-YL)PYRIMIDINE DERIVATIVE AND PHARMACEUTICAL COMPOSITION COMPRISING SAME” (LG Chem, Ltd., priority 2021, dated 2023) one finds Ki data, which are given here for 27 compounds.

In general, Ki refers to the equilibrium dissociation constant of an inhibitor or competing ligand from its target. Higher therefore signals weaker binding.

The target of this experiment is T1, Ketohexokinase (KHK) (Homo sapiens, UniProt P50053).
T1 construct: His tag; made in house; host or cells: E. coli
T1 sequence (P50053 1-298): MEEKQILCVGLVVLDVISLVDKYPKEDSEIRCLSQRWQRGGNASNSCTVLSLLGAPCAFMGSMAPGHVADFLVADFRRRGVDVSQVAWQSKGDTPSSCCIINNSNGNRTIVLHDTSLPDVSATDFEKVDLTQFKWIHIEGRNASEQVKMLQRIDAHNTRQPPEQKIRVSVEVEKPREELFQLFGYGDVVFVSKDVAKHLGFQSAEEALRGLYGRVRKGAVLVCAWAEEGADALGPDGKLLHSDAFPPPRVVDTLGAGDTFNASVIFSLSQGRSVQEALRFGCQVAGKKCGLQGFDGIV
Nature of the experiment: measurement of activity in vitro of ketohexokinase inhibitor (Transcreener ADP2 TR-FRET Red Assay, ADP produced). The settings on record: KHK pre-reacted with inhibitor 30 minutes, then substrate (ATP, fructose) 15 minutes; Ki by Morrison equation. Format: biochemical. As to the method:
Ketohexokinase (KHK) was expressed in E. Coli and purified using His tag. In order to measure the activity of the purified KHK, Transcreener ADP2 TR-FRET Red Assay kit of BellBrook Labs was used. A method of measuring the amount of ADP produced was used using TR-FRET after reacting a solution including a suitable concentration of KHK protein and ATP, and fructose for 15 minutes. In order to see the activity of a ketohexokinase (KHK) inhibitor, ketohexokinase (KHK) and a suitable concentration of an inhibitor were reacted first for 30 minutes, and then, reacted with a solution including the substrate of ketohexokinase (KHK) for 15 minutes. Then, reaction for TR-FRET was performed for 1 hour, and fluorescence was measured using Envision equipment of PerkinElmer. According to the optimization procedure of TR-FRET published by BellBrook Lab, the set value of the Envision equipment was determined.
The result values by concentration of the ketohexokinase (KHK) inhibitor were determined as the ratio of a wavelength of 665 nm and a wavelength of 615nm. The 665/615 ratio value by concentration of each inhibitor was converted to ADP concentration based on ADP standard curve, and inhibition activity Ki value was obtained using Morrison equation by statistical software (Prizm). Meanwhile, the Ki value is a value representing the binding affinity of the inhibitor and an enzyme, and a lower value means better inhibitory activity.
On the technique in general: In TR-FRET formats the signal depends on donor and acceptor labels being close together.
`C[C@H]1CCN1c1nc(N2CCN(CC(=O)N3CCOCC3)CC2)c2c(n1)C(F)(F)CC2` [Example 14, (S)-2-4-(7,7-difluoro-2-(2-methylazetidin-1-yl)-6,7-dihydro-5H-cyclopenta[d]pyrimidin-1-yl)-1-(piperazin-1-yl)morpholinoethan-1-one] had a Ki of 10 to 100 nM. To `C[C@H]1CCN1c1nc(N2CCN(C(=O)CC(=O)N3CCNCC3)CC2)c2c(n1)C(F)(F)CC2` [Example 15] belongs at most 10 nM. On to `C[C@H]1CCN1c1nc(N2CCN(CC(=O)N3CCNCC3)C(=O)C2)c2c(n1)C(F)(F)CC2` [Example 16, (S)-4-(7,7-difluoro-2-(2-methylazetidin-1-yl)-6,7-dihydro-5H-cyclopenta[d]pyrimidin-4-yl)-1-(2-oxo-2-(piperazin-1-yl)ethyl)piperazin-2-one], for which the Ki was at most 10 nM. Compound `C[C@H]1CCN1c1nc(C2CCN(CC(=O)N3CCNCC3)CC2)c2c(n1)C(F)(F)CC2` [Example 17, (S)-2-(4-(7,7-difluoro-2-(2-methylazetidin-1-yl)-6,7-dihydro-5H-cyclopenta[d]pyrimidin-4-yl)piperidin-1-yl)-1-(piperazin-1-yl)ethan-1-one] registered a Ki of at most 10 nM. The compound `C[C@H]1CCN1c1nc(N2C[C@@H]3[C@@H](CC(=O)N4CCNCC4)[C@@H]3C2)c2c(n1)C(F)(F)CC2` [Example 18, 2-((1R,5S,6R)-3-(7,7-difluoro-2-((S)-2-methylazetidin-1-yl)-6,7-dihydro-5H-cyclopenta[d]pyrimidin-4-yl)-3-azabicyclo[3.1.0]hexan-6-yl)-1-(piperazin-1-yl)ethan-1-one] returned a Ki of at most 10 nM. To `C[C@H]1CCN1c1nc(N2C[C@@H]3[C@@H](CC(=O)N4CCN(C)CC4)[C@@H]3C2)c2c(n1)C(F)(F)CC2` [Example 19, 2-((1R,5S,6R)-3-(7,7-difluoro-2-((S)-2-methylazetidin-1-yl)-6,7-dihydro-5H-cyclopenta[d]pyrimidin-4-yl)-3-azabicyclo[3.1.0]hexan-6-yl)-1-(4-methylpiperazin-1-yl)ethan-1-one] belongs at most 10 nM; to `C[C@H]1CCN1c1nc(N2C[C@@H]3[C@@H](CC(=O)N4CCNC(=O)C4)[C@@H]3C2)c2c(n1)C(F)(F)CC2` [Example 20, 4-(2-((1R,5S,6R)-3-(7,7-difluoro-2-((S)-2-methylazetidin-1-yl)-6,7-dihydro-5H-cyclopenta[d]pyrimidin-4-yl)-3-azabicyclo[3.1.0]hexan-6-yl)acetyl)piperazin-2-one], at most 10 nM. In turn, `C[C@H]1CCN1c1nc(N2C[C@H]3C[C@@H](C2)[C@@H]3CC(=O)N2CCNCC2)c2c(n1)C(F)(F)CC2` [Example 21, 2-((1R,5S,6S)-3-(7,7-difluoro-2-((S)-2-methylazetidin-1-yl)-6,7-dihydro-5H-cyclopenta[d]pyrimidin-4-yl)-3-azabicyclo[3.1.0]heptan-6-yl)-1-(piperazin-1-yl)ethan-1-one] returned a Ki of at most 10 nM. Under `CC(=O)N1CCN(C(=O)C[C@@H]2[C@@H]3C[C@H]2CN(c2nc(N4CC[C@@H]4C)nc4c2CCC4(F)F)C3)CC1` [Example 22, 1-(4-acetylpiperazin-1-yl)-2-((1R,5S,6S)-3-(7,7-difluoro-2-((S)-2-methylazetidin-1-yl)-6,7-dihydro-5H-cyclopenta[d]pyrimidin-4-yl)-3-azabicyclo[3.1.1]heptan-6-yl)ethan-1-one] stands 100 to 1000 nM; under `CC1CCN1c1nc(N2CC3CC(C2)C3CC(=O)N2CCNCC2)c2c(n1)C(F)(F)CCC2` [Example 23, 2-((1R,5S,6S)-3-(8,8-difluoro-2-((S)-2-methylazetidin-1-yl)-5,6,7,8-tetrahydroquinazolin-4-yl)-3-azabicyclo[3.1.1]heptan-6-yl)-1-(piperazin-1-yl)ethan-1-one], 10 to 100 nM. `C[C@H]1CCN1c1nc(N2C[C@H]3C[C@@H](C2)[C@@H]3CC(=O)N2CCNCC2)c2c(n1)C(F)(F)OCC2` [Example 24, 2-((1R,5S,6S)-3-(8,8-difluoro-2-((S)-2-methylazetidin-1-yl)-5,8-dihydro-6H-pyrazol[3,4-d]pyrimidin-4-yl)-3-azabicyclo[3.1.1]heptan-6-yl)-1-(piperazin-1-yl)ethan-1-one] yielded a Ki of 10 to 100 nM. Regarding `C[C@H]1CCN1c1nc(N2C[C@@H]3[C@H](C2)[C@H]3CS(=O)(=O)N2CCNCC2)c2c(n1)C(F)(F)CC2` [Example 25, 7,7-difluoro-2-((S)-2-methylazetidin-1-yl)-4-((1R,5S,6S)-6-((piperazin-1-ylsulfonyl)methyl)-3-azabicyclo[3.1.0]hexan-3-yl)-6,7-dihydro-5H-cyclopenta[d]pyrimidine], the inhibition constant Ki was at most 10 nM. To `Cc1c(N2CC(OCC(=O)N3CCNCC3)C2)nc(N2CC[C@@H]2C)nc1C(F)(F)F` [Example 26, (S)-2-((1-(5-methyl-2-(2-methylazetidin-1-yl)-6-(trifluoro)pyrimidin-4-yl)azetidin-3-yl)oxy)-1-(piperazin-1-yl)ethan-1-one] belongs at most 10 nM; to `C[C@H]1CCN1c1nc(N2CCC(OCC(=O)N3CCNCC3)CC2)cc(C(F)(F)F)n1` [Example 27], 10 to 100 nM. Turning to `Cc1c(N2CCC(OCC(=O)N3CCNCC3)CC2)nc(N2CC[C@@H]2C)nc1C(F)(F)F` [Example 28], the Ki is 10 to 100 nM. On to `C[C@H]1CCN1c1nc(-c2ccc(CC(=O)O)cc2)c2c(n1)C(F)(F)CC2` [Example 29], for which the Ki was 10 to 100 nM. To `C[C@H]1CCN1c1nc(-c2ccc(CC(=O)N3CCNCC3)cc2)c2c(n1)C(F)(F)CC2` [Example 30, (S)-2-(4-(7,7-difluoro-2-(2-methylazetidin-1-yl)-6,7-dihydro-5H-cyclopenta[d]pyrimidin-4-yl)phenyl)-1-(piperazin-1-yl)ethan-1-one] belongs at most 10 nM; to `C[C@H]1CCN1c1nc(-c2ccc(CC(=O)N3CCNCC3)nc2)cc(C(F)(F)F)n1` [Example 31], at most 10 nM; to `C[C@H]1CCN1c1nc(-c2ccc(OCC(=O)N3CCNCC3)cc2)c2c(n1)C(F)(F)CC2` [Example 32], 10 to 100 nM. Regarding `C[C@H]1CCN1c1nc(-c2ccc(OCC(=O)N3CCNCC3)c(F)c2)c2c(n1)C(F)(F)CC2` [Example 33], the Ki was in the range of 10 to 100 nM. To `C[C@H]1CCN1c1nc(-c2cc(F)c(OCC(=O)N3CCNCC3)c(F)c2)c2c(n1)C(F)(F)CC2` [Example 34] belongs at most 10 nM; to `C[C@H]1CCN1c1nc(-c2ccc(OCC(=O)N3CCNCC3)c(Cl)c2)c2c(n1)C(F)(F)CC2` [Example 35], at most 10 nM.

In turn, `C[C@H]1CCN1c1nc(-c2ccc(OCC(=O)N3CCCNCC3)c(Cl)c2)c2c(n1)C(F)(F)CC2` [Example 36, (S)-2-(2-(chloro-4-(7,7-difluoro-2-(2-methylazetidin-1-yl)-6,7-dihydro-5H-cyclopenta[d]pyrimidin-4-yl)phenoxy)-1-(1,4-diazepan-1-yl)ethan-1-one)] registered a Ki of at most 10 nM.

Consider `C[C@H]1CCN1c1nc(-c2ccc(OCC(=O)N3CCNCC3)nc2)c2c(n1)C(F)(F)CC2` [Example 37], for which the Ki is at most 10 nM. Under `C[C@H]1CCN1c1nc(-c2cnc(OCC(=O)N3CCNCC3)c(Cl)c2)c2c(n1)C(F)(F)CC2` [Example 38] stands at most 10 nM; under `C[C@H]1CCN1c1nc(-c2ccc(OCC(=O)N3CCNCC3)nc2)cc(C(F)(F)F)n1` [Example 39, (S)-2-((5-(2-(2-methylazetidin-1-yl)-6-(trifluoromethyl)pyrimidin-4-yl)pyridin-2-yl)oxy)-1-(piperazin-1-yl)ethan-1-one], at most 10 nM; under `Cc1c(-c2ccc(OCC(=O)N3CCNCC3)nc2)nc(N2CC[C@@H]2C)nc1C(F)(F)F` [Example 40, (S)-2-((5-(5-methyl-2-(2-methylazetidin-1-yl)-6-(trifluoromethyl)pyrimidin-4-yl)pyridin-2-yl)oxy)-1-(piperazin-1-yl)ethan-1-one], at most 10 nM.
